Here are results for 14 compounds from patent US5128338A, “Imidazo [1,2-c] quinazoline compounds” (priority 1990, dated 1992).

The target in test [1] is central receptors for benzodiazepines. As to the kind of experiment: Displacement of [3H]-RO 151788, rat central nervous system microsomal fractions. In kind it is binding. As to conditions: corrected for DMSO, read-out: K0.5, central receptors, [^3 H]--RO 151788. (Displacement assays read how much labelled ligand stays bound in the presence of the test substance.)
The target of test [2] is T1, peripheral receptors for benzodiazepines ([^3 H]-R05-4864) (Rattus norvegicus, UniProt P16257).
T1 construct: on microsomal fractions from rat heart; from tissue; host or cells: rat heart, microsomal fractions
As to the kind of experiment: Displacement of [3H]-R05-4864, rat heart microsomal fractions.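 Also: Read-out is filter-retained bound radioligand, separated from free ligand by vacuum filtration over GF/C and counted by liquid scintillation, with compounds first dissolved in DMSO.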 It is filed as binding. As to conditions: corrected for DMSO, read-out: K0.5, peripheral receptors, [^3 H]--RO 54864.

In the next test the test system is porcine coronary. The test can be described thus: Porcine coronary relaxation (PGF2α-precontracted coronary segments). Set-up: species or system pig (Yucatan mini pig). As to conditions: for EC20 / EC50: Sus scrofa, 37° C., corrected for DMSO; for EC20: read-out: DE20, effect on coronary tension induced by PGF2α; for EC50: read-out: DE50, effect on coronary tension induced by PGF2α. As for the experimental part:
All the products studied were dissolved in DMSO at a concentration of 10^-2 M, then diluted to the desired concentrations in the experimental media. All of the ED20, ED50 and K0.5 values were corrected for the values obtained with DMSO under the same conditions of dilution.
Coronaries were taken on the heart of pigs (Yucatan mini pig), anesthetized under stresnil and pentobarbital. Proximal segments of the coronary were placed in an organ tank filled with Ringer solution at 37° C. The segments were tightened progressively to a base tension of around 6 g and contracted by the addition of PGF2α at a concentration of 4.10^-6 M. The potential of the products of the present invention to relax the coronary artery were then tested.
All of the compounds were tested for their capacity to relax the porcine coronary precontracted by PGF2α.

Test [3] has as its target T2, peripheral receptors for benzodiazepines ([^3 H]-PK 11195) (Rattus norvegicus, UniProt P16257).
T2 construct: on microsomal fractions from rat heart; from tissue; host or cells: rat heart, microsomal fractions
The test can be described thus: Displacement of [3H]-PK 11195, rat heart microsomal fractions.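 Also: radioligand binding with bound label split from free by vacuum filtration, then quantified through liquid scintillation counting.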 It is filed as binding. As to conditions: corrected for DMSO, read-out: K0.5, peripheral receptors, [^3 H]--PK 11195.

[4] abbreviates: porcine coronary segments, PGF2α 4.10^-6 M.

For `CCOC(=O)c1cn2c(=O)[nH]c3ccccc3c2n1` [Example 1, 2-Ethoxycarbonyl-5-oxo-5,6-dihydroimidazo[1,2-c]quinazoline], the IC50 was 1 µM in test [1], 61 µM in test [2] and over 100 µM in test [3]. Besides, the “Effect on coronary tension induced by PGF2α (in words)” value with porcine coronary (setting [4]) is “No effect”.
As for `CC(C)NC(=O)Cn1c(=O)n2cc(-c3ccccc3)nc2c2ccccc21` [Example 14, 2-phenyl-6-N-isopropylaminocarbonylmethyl-5-oxo-5,6-dihydroimidazo[1,2-c]quinazoline], the IC50 in test [1], in test [2] and in test [3] was over 100 µM in each case. For the same compound, in the test with porcine coronary (setting [4]), the EC20 stood at 386 µM. For the same compound, the EC50 in the test on porcine coronary (setting [4]) came out at 13.8 µM.
`CCN(CC)C(=O)Cn1c(=O)n2cc(-c3ccsc3)nc2c2ccccc21` [Example 22, 2-(3-thienyl)-6-N,N-diethylaminocarbonylmethyl-5-oxo-5,6-dihydroimidazo[1,2-c]quinazoline]: the IC50 in test [1] was over 100 µM; in test [2] it was 0.13 µM; in test [3], 0.2 µM. Further, the EC20 with porcine coronary (setting [4]) amounted to 3.51 µM. For the same compound, in the test with porcine coronary (setting [4]), the EC50 was found to be 0.73 µM.
Taken in the same sequence, the figures for `CCN(CC)C(=O)Cn1c(=O)n2cc(C(N)=O)nc2c2ccccc21` [Example 4, 2-Aminocarbonyl-6-N,N-diethylaminocarbonylmethyl-5-oxo-5,6-dihydroimidazo[1,2-c]quinazoline] were over 100 µM, 6 µM, 8 µM, 57.4 µM and 9.66 µM.
Take `CC(C)CNC(=O)Cn1c(=O)n2cc(-c3ccccc3)nc2c2ccccc21` [Example 24, 2-phenyl-6-N-isobutylaminocarbonylmethyl-5-oxo-5,6-dihydroimidazo[1,2-c]quinazoline]: the IC50 in test [1], in test [2] and in test [3] was over 100 µM each time. Moreover, in the test on porcine coronary (setting [4]), the EC20 came out at 24.1 µM. Besides, in the test on porcine coronary (setting [4]), the EC50 amounted to 0.99 µM.
On to `O=C(Cn1c(=O)n2cc(-c3ccccc3)nc2c2ccccc21)N1CCOCC1` [Example 16, 2-phenyl-6-morpholinocarbonylmethyl-5-oxo-5,6-dihydroimidazo[1,2-c]quinazoline], for which the IC50 in test [1], in test [2] and in test [3] was over 100 µM in each case. For the same compound, the EC20 in the test with porcine coronary (setting [4]) amounted to 12.3 µM. Further, the EC50 with porcine coronary (setting [4]) was 3.49 µM.
Take `CCN(CC)C(=O)Cn1c(=O)n2cc(-c3ccc(OC)cc3)nc2c2ccccc21` [Example 17, 2-(p-methoxyphenyl)-6-N,N-diethylaminocarbonylmethyl-5-oxo-5,6-dihydroimidazo[1,2-c]quinazoline]: the results for the IC50 in test [1], in test [2] and in test [3] were 100 µM, 0.12 µM and 0.14 µM, respectively. Besides, the EC20 in the test on porcine coronary (setting [4]) is 2.22 µM. The EC50 in the test on porcine coronary (setting [4]) worked out at 0.45 µM. Besides, in the test on porcine coronary (overall judgement of relaxation and K0.5), the “level of relaxation obtained as well as the 50% effect value (K0.5) obtained by displacement” value was “particularly favorable”.
In the case of `CCOC(=O)Cn1c(=O)n2cc(-c3ccccc3)nc2c2ccccc21` [Example 13, 2-phenyl-6-ethoxycarbonylmethyl-5-oxo-5,6-dihydroimidazo[1,2-c]quinazoline], the IC50 in test [1] is over 100 µM; in test [2], over 100 µM; in test [3] it was 100 µM. The EC20 with porcine coronary (setting [4]) was 84.2 µM. In addition, in the test on porcine coronary (setting [4]), the EC50 came out at 7.15 µM.
`CCN(CC)C(=O)Cn1c(=O)n2cc(-c3ccco3)nc2c2ccccc21` [Example 21, 2-(2-furyl)-6-N,N-diethylaminocarbonylmethyl-5-oxo-5,6-dihydroimidazo[1,2-c]quinazoline]: the IC50 in test [1] was over 100 µM; in test [2], 0.58 µM; in test [3], 0.26 µM. Further, in the test on porcine coronary (setting [4]), the EC20 stood at 3.89 µM. Moreover, the EC50 with porcine coronary (setting [4]) stood at 1 µM.
`CCN(CC)C(=O)Cn1c(=O)n2cc(-c3ccc(Cl)cc3)nc2c2ccccc21` [Example 15, 2-(p-chlorophenyl)-6-N,N-diethylaminocarbonylmethyl-5-oxo-5,6-dihydroimidazo[1,2-c]quinazoline]: the values for the IC50 in test [1], in test [2] and in test [3] were over 100 µM, about 100 µM and 1.5 µM, respectively. Besides, the EC20 with porcine coronary (setting [4]) was 45.4 µM. Further, the EC50 with porcine coronary (setting [4]) was determined as 6.12 µM.
For `CCOC(=O)CCCn1c(=O)n2cc(-c3ccccc3)nc2c2ccccc21` [Example 27, 2-phenyl-6-ethoxycarbonylpropyl-5-oxo-5,6-dihydroimidazo[1,2-c]quinazoline] the same measures were 100 µM, 60 µM, over 100 µM, over 100 µM and over 100 µM.
Taken in the same sequence, the figures for `CCN(CC)C(=O)Cn1c(=O)n2cc(-c3cccc(Cl)c3)nc2c2ccccc21` [Example 19, 2-(m-chlorophenyl)-6-N,N-diethylaminocarbonylmethyl-5-oxo-5,6-dihydroimidazo[1,2-c]quinazoline] were over 100 µM, 0.05 µM, 0.058 µM, 23.6 µM and 2.36 µM.
On to `CCN(CC)C(=O)Cn1c(=O)n2cc(-c3ccc(C)cc3)nc2c2ccccc21` [Example 18, 2-(p-methylphenyl)-6-N,N-diethylaminocarbonylmethyl-5-oxo-5,6-dihydroimidazo[1,2-c]quinazoline], for which the IC50 in test [1] worked out at 100 µM; in test [2], 0.07 µM; in test [3], 0.21 µM. In addition, in the test with porcine coronary (setting [4]), the EC20 turned out to be 8.37 µM. For the same compound, in the test on porcine coronary (setting [4]), the EC50 stood at 0.94 µM.
For the compound `CCN(CC)C(=O)CCCn1c(=O)n2cc(-c3ccccc3)nc2c2ccccc21` [Example 26, 2-phenyl-6-N,N-diethylaminocarbonylpropyl-5-oxo-5,6-dihydroimidazo[1,2-c]quinazoline], the results for the IC50 in test [1], in test [2] and in test [3] were 100 µM, 2.3 µM and 10 µM, respectively. Moreover, the EC20 with porcine coronary (setting [4]) was 45.3 µM. The EC50 in the test on porcine coronary (setting [4]) was 7.67 µM.
